One experiment deals with T1, Human KRAS G12V (Homo sapiens, UniProt P01116, G12V).
T1 construct: purchased PerkinElmer
In words: KRAS-G12V/GTP binding assay (HTRF kit). Conditions: 25° C., 1 h. As to the method:
Test Example 2: KRAS G12V Binding Assay
In this method, the inhibitory effects of the compounds on the binding of KRAS G12V to GTP were assayed by a homogeneous time-resolved fluorescence (HTRF) technique using a KRAS-G12V/GTP binding assay kit (PerkinElmer).
The experimental procedures were as follows (refer to the kit instructions for detailed test methods): the compounds of the present disclosure were each firstly dissolved in DMSO at a concentration of 20 mM, and then diluted in an equal gradient with a buffer in the kit, so that the final concentrations of the test compounds in the reaction system were in a range of 0.02-5000 nM, and the final concentration of DMSO was 0.5%. 5 μL of each compound was incubated with 5 μL of 1× Human KRAS G12V 6His-tagged (PerkinElmer), 5 µL of 1×6His Eu Cryptate Antibody (PerkinElmer), and 5 μL of 1×GTP Red reagent (PerkinElmer) in a 384-well plate (Greiner) at 25° C. for 1 h. After the incubation was completed, the fluorescence intensity of each well was measured at the excitation wavelength of 337 nm and the emission wavelengths of 620 nm and 665 nm with an EnVision microplate reader (PerkinElmer) in the HTRF mode, and Ratio values were calculated using the formula: Ratio=(665 nm/620 nm)×10^4. The inhibition rates of the compounds at each concentration were calculated by comparing the fluorescence intensity ratio with that of the control group. Then non-linear curve fittings for logarithmic concentration-inhibition rate were performed using the GraphPad Prism 8 analysis software, and the IC50 values of the compounds were obtained (Table 3).
A general note: Time-resolved FRET reads energy transfer from a long-lived donor to a nearby acceptor.

Experiment [1] has as its target T2, KRAS G12V protein in SW900 cells (Homo sapiens, UniProt P01116, G12V).
T2 construct: endogenous in cells; host or cells: SW900
In words: KRAS degradation assay (Western Blot) in SW900 cells. Type of experiment: cell-based. Conditions: 24 h. The method, boiled down:
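5×10^5 cells/well; cpd 0.03–3000 nM final, 0.25% DMSO, 24 h, 37 °C/5% CO2. RIPA lysis, 5 µg protein/lane, anti-KRAS WB, β-actin loading ref. DC50/Dmax by nonlinear fit.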
On the technique in general: Immunoblotting shows a protein as a band on a membrane.

Experiment [2] deals with KRAS G12D mutant human metastatic pancreatic cancer cell AsPc-1. The experiment in a line: 3D cell proliferation inhibition assay, AsPc-1. It is filed as cell-based. Conditions: ASPC1, 168 h, 3D culture, 7 days, CTG. The method, boiled down:
(§1)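 Seven-day 3D growth at 37 °C in low-adsorption wells, 5×10^2 cells/well except MKN1 (1×10^3), final compound range 10000–0.026 nM in 0.2% DMSO. CTG luminescence read-out; percent inhibition set against DMSO and medium-only wells, IC50 by curve fitting.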

Experiment [3] has as its system KRAS G12V mutant human lung squamous carcinoma cell SW900. The experiment in a line: 3D cell proliferation inhibition assay, SW900. To be noted: SW900, 168 h, 3D culture, 7 days, CTG. It is filed as cell-based.
The subject of experiment [4] is KRAS G12V mutant human colorectal cancer cell SW620. The experiment in a line: 3D cell proliferation inhibition assay, SW620. Type of experiment: cell-based. To be noted: SW-620, 168 h, 3D culture, 7 days, CTG. The method, boiled down:
as §1

Experiment [5] deals with KRAS WT human gastric cancer cell MKN1. In words: 3D cell proliferation inhibition assay, MKN1. Conditions: MKN-1, 168 h, 3D culture, 7 days, CTG. It is filed as cell-based. The method, boiled down:
as §1

The subject of the next experiment is KRAS-G12D mutant cells. Conditions: background, J. Med. Chem. 2022, 65, 3923-3942; cited from earlier work.

T2 sequence (P01116 1-188 isoform P01116-2 G12V): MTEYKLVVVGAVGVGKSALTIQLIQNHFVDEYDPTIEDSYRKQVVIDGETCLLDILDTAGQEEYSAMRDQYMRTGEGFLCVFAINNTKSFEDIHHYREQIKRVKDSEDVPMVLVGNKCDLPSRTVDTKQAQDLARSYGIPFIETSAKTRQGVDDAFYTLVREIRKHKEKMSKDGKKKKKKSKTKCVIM
T1 sequence (P01116 1-188 isoform P01116-2 G12V): as above

What is called IC50 is the midpoint of a concentration-inhibition curve. Broadly, the DC50 is the midpoint of the concentration-degradation curve. Low readings indicate degradation at low concentration, high ones degradation only at high concentration. Usually Dmax stands for the greatest extent of degradation seen. High values mean deep degradation, low ones shallow degradation. Take `C#Cc1cccc2cc(O)cc(-c3ncc4c(N5CCC[C@@](C)(O)C5)nc(OCC5(CN6CCN(CC7CCC8(CC7)CCN(C(=O)c7ccc(OC)c(N9CCC(=O)NC9=O)c7)CC8)CC6)CC5)nc4c3F)c12` [Example 29, (R)-1-(5-(9-((4-((1-(((7-(8-ethynyl-3-hydroxynaphthalen-1-yl)-8-fluoro-4-(3-hydroxy-3-methylpiperidin-1-yl)pyrido[4,3-d]pyrimidin-2-yl)oxy)methyl)cyclopropyl)methyl)piperazin-1-yl)methyl)-3-azaspiro[5.5]undecane-3-carbonyl)-2-methoxyphenyl)dihydropyrimidine-2,4(1H,3H)-dione]: the IC50 on Human KRAS G12V was not above 500 nM; in experiment [2], not above 50 nM; in experiment [3], not above 50 nM; in experiment [4], 4.46 nM; in experiment [5], not above 50 nM. The compound further had a DC50 in experiment [1] not above 50 nM. In experiment [1], this compound gave a Dmax of 80 to 100%.

For the compound `C#Cc1c(F)ccc2cc(O)cc(-c3ncc4c(N5CC6CCC(C5)N6)nc(OC[C@@]56CCCN5C[C@H](F)C6)nc4c3F)c12` [MRTX1133], the “specificity for KRAS-G12D mutant cells over wild-type tumor cells” value in the experiment with KRAS-G12D mutant cells is listed as “more than 1000 times”.

On Human KRAS G12V, `C#Cc1c(F)ccc2cc(O)cc(-c3ncc4c(N(C)C5CC5)nc(OCC5(CN6CCN(CC7CCC8(CC7)CCN(C(=O)c7ccc(OC)c(N9CCC(=O)NC9=O)c7)CC8)CC6)CC5)nc4c3F)c12` [Example 30, 1-(5-(9-((4-((1-(((4-(cyclopropyl(methyl)amino)-7-(8-ethynyl-7-fluoro-3-hydroxynaphthalen-1-yl)-8-fluoropyrido[4,3-d]pyrimidin-2-yl)oxy)methyl)cyclopropyl)methyl)piperazin-1-yl)methyl)-3-azaspiroundecane-3-carbonyl)-2-methoxyphenyl)dihydropyrimidine-2,4(1H,3H)-dione] had an IC50 of 500 to 1000 nM. In experiment [1], the DC50 was not above 50 nM and the Dmax lay within 50 to 80%.

These data come from US20260167622A1, “PAN-KRAS DEGRADING AGENT, AND PREPARATION METHOD THEREFOR AND USE THEREOF” (LEADINGTAC PHARMACEUTICAL (SHAOXING) CO., LTD., priority 2022, published 2026).
